What was measured:
[1] = LNP hydrodynamic diameter and polydispersity index by dynamic light scattering (DLS); assay type: physicochemical; settings: for Diameter (nm): hydrodynamic diameter of the LNP preparation with the ionizable lipid; for PDI: polydispersity index of the LNP preparation with the ionizable lipid
Protocol: (§1) A 3:1 ratio of aqueous to organic solvent was maintained during mixing using differential flow rates. After mixing, LNP preparations were collected and diluted in TBS (approximately 7:1 v/v), and further buffer exchange was conducted using dialysis in TBS at 4° C. for 8 to 24 hours against a 20 kDa filter. After this initial dialysis, each individual LNP preparation was characterized via dynamic light scattering (DLS) to measure size and polydispersity. pKa of a subpopulation of LNP preparations was measured via TNS assay.
DLS-LNP preparation hydrodynamic diameter and polydispersity index (PDI) was measured using high throughput dynamic light scattering (DLS) (DynaPro plate reader II, Wyatt). LNP preparations were diluted 1×PBS to an appropriate concentration and analyzed.

ALAS1 target site = assay: Base editing in liver by LNP-delivered ABE mRNA and sgRNA, targeted deep sequencing; assay type: in vivo; settings: LNP with the ionizable lipid, ABE mRNA + sgRNA targeting ALAS1 1:1; tail vein injection, Balb/c mice; 0.05 mg/kg; tissues four to six days post-dose
Protocol: (§2) Lipid nanoparticle components were dissolved in 100% ethanol at specified lipid component molar ratios. mRNA encoding an adenine base editor and a chemically-modified sgRNA was dissolved at a mass ratio of 1:1 in 50 mM citrate, pH 4.0, resulting in a concentration of NA cargo of approximately 0.1 mg/mL.
(§3) LNP preparations were formulated with molar ratios of 47.5% Ionizable Lipid: 40% Cholesterol: 2.5% PEG2000-DMG: 10% DSPC total lipid to NA molar ratio of 6 to 12.
(§4) LNP preparations were formed by microfluidic mixing of the lipid and NA solutions using Precision Nanosystems NanoAssemblr Ignite series Instruments, according to the manufacturer's protocol.
as §1
Male Balb/C mice aged approximately 8-12 weeks were used in the experiments described herein. […]
Age-matched mice were also used to administer vehicle (1×TBS) via tail vein injection as a control. Four to six days post-dose, tissues including liver, spleen, and bone marrow were collected. Base editing was determined by performing targeted deep sequencing analysis at the ALAS1 target site using extracted genomic DNA. Genomic DNA was isolated and fragmented and adapter-ligated using the Nextera DNA Flex Library Prep Kit (Illumina) using the 96-well plate Nextera indexing primers (Illumina), according to the manufacturer's instructions. Library size and concentration was confirmed by Fragment Analyzer (Agilent) and analyzed for whole genome sequencing using an Illumina HiSeq.

[2] = Encapsulation efficiency of LNP preparations (Ribogreen assay; Qubit, unlysed and lysed LNPs); assay type: physicochemical; settings: LNP preparation with the ionizable lipid, ABE mRNA:sgRNA 1:1, except 7-1, 7-2, 7-6, 7-10 (unlysed and lysed LNPs, Qubit)
Protocol: as §2, §3, §4
With the exception of LNPs comprising ionizable lipids 7-1, 7-2, 7-6, and 7-10, RNA concentration and encapsulation efficiency were determined by Ribogreen assay (BioTek Synergy LX plate reader). For LNPs comprising ionizable lipids 7-1, 7-2, 7-6, and 7-10, RNA concentration was determined by Qubit microRNA kit (for siRNA) or HS RNA kit (for mRNA) per manufacturer's instructions, and encapsulation efficiency was determined by measuring unlysed and lysed LNPs.

| Diameter (nm) [1] [nm] | PDI [1] | Encapsulation Efficiency (%) [2] [%] | SMILES | % Editing in Liver (0.05 mpk) (ALAS1 target site) [%] |
| --- | --- | --- | --- | --- |
| 64.85 | 0.11 | 96.7 | C=CCCCCCC(CCCCCC=C)OC(=O)CCCCCC(=O)OCC(COC(=O)CCC(CCCCC)OC(=O)NCCN1CCCC1)COC(=O)CCC(OCCCC/C=C\CC)OCCCC/C=C\CC (stereo not shown) [Compound 7-33, 1-(3-((4,4-bis(((Z)-oct-5-en-1-yl)oxy)butanoyl)oxy)-2-(((4-(((2-(pyrrolidin-1-yl)ethyl)carbamoyl)oxy)nonanoyl)oxy)methyl)propyl) 7-(pentadeca-1,14-dien-8-yl) heptanedioate] | 6.5 |
| 54.35 | 0.05 | 98.1 | C=CCCCCCC(CCCCCC=C)OC(=O)CCCCCC(=O)OCC(COC(=O)CCC(CCCCCC)OC(=O)NCCN1CCCC1)COC(=O)CCC(OCCCC/C=C\CC)OCCCC/C=C\CC (stereo not shown) [Compound 7-34, 1-(3-((4,4-bis(((Z)-oct-5-en-1-yl)oxy)butanoyl)oxy)-2-(((4-(((2-(pyrrolidin-1-yl)ethyl)carbamoyl)oxy)decanoyl)oxy)methyl)propyl) 7-(pentadeca-1,14-dien-8-yl) heptanedioate] | 1.6 |
| 64.25 | 0.12 | 96.2 | CC/C=C\CCCCOC(CCC(=O)OCC(COC(=O)CCCCCC(=O)OC(CCCCCCC)CCCCCCC)COC(=O)CCC(CCCCC)OC(=O)NCCN1CCCC1)OCCCC/C=C\CC (stereo not shown) [Compound 7-35, 1-(3-((4,4-bis(((Z)-oct-5-en-1-yl)oxy)butanoyl)oxy)-2-(((4-(((2-(pyrrolidin-1-yl)ethyl)carbamoyl)oxy)nonanoyl)oxy)methyl)propyl) 7-(pentadecan-8-yl) heptanedioate] | 3.1 |
| 53.80 | 0.04 | 98.2 | CC/C=C\CCCCOC(CCC(=O)OCC(COC(=O)CCCCCC(=O)OC(CCCCCCC)CCCCCCC)COC(=O)CCC(CCCCCC)OC(=O)NCCN1CCCC1)OCCCC/C=C\CC (stereo not shown) [Compound 7-36, 1-(3-((4,4-bis(((Z)-oct-5-en-1-yl)oxy)butanoyl)oxy)-2-(((4-(((2-(pyrrolidin-1-yl)ethyl)carbamoyl)oxy)decanoyl)oxy)methyl)propyl) 7-(pentadecan-8-yl) heptanedioate] | 1.5 |
| 66.20 | 0.12 | 94.7 | CC/C=C\CCCCOC(CCC(=O)OCC(COC(=O)CCC(CCCCC)OC(=O)NCCN1CCCC1)COC(=O)CCC(OCCCC/C=C\CC)OCCCC/C=C\CC)OCCCC/C=C\CC (stereo not shown) [Compound 7-37, 2-(((4-(((2-(pyrrolidin-1-yl)ethyl)carbamoyl)oxy)nonanoyl)oxy)methyl)propane-1,3-diyl bis(4,4-bis(((Z)-oct-5-en-1-yl)oxy)butanoate)] | 12.0 |
| 60.25 | 0.06 | 99.1 | CC/C=C\CCCCOC(CCC(=O)OCC(COC(=O)CCC(CCCCCC)OC(=O)NCCN1CCCC1)COC(=O)CCC(OCCCC/C=C\CC)OCCCC/C=C\CC)OCCCC/C=C\CC (stereo not shown) [Compound 7-38, 2-(((4-(((2-(pyrrolidin-1-yl)ethyl)carbamoyl)oxy)decanoyl)oxy)methyl)propane-1,3-diyl bis(4,4-bis(((Z)-oct-5-en-1-yl)oxy)butanoate)] | 9.4 |
| 53.4 | 0.08 | 97.4 | C=CCCCCCC(CCCCCC=C)COC(=O)CCCCC(=O)OCC(COC(=O)CCC(CCCCCC)OC(=O)NCCN1CCCC1)COC(=O)CCC(OCCCC/C=C\CC)OCCCC/C=C\CC (stereo not shown) [Compound 7-39, 3-((4,4-bis(((Z)-oct-5-en-1-yl)oxy)butanoyl)oxy)-2-(((4-(((2-(pyrrolidin-1-yl)ethyl)carbamoyl)oxy)decanoyl)oxy)methyl)propyl (2-(hept-6-en-1-yl)non-8-en-1-yl) adipate] | 1.4 |
| 54.1 | 0.09 | 96.8 | CC/C=C\CCCCOC(CCC(=O)OCC(COC(=O)CCCCCCOC(=O)C(CCCC)CCCCCC)COC(=O)CCC(CCCCCC)OC(=O)NCCN(C)C)OCCCC/C=C\CC (stereo not shown) [Compound 7-40, 3-((4,4-bis(((Z)-oct-5-en-1-yl)oxy)butanoyl)oxy)-2-(((7-((2-butyloctanoyl)oxy)heptanoyl)oxy)methyl)propyl 4-(((2-(dimethylamino)ethyl)carbamoyl)oxy)decanoate] | 1.9 |
| 59.05 | 0.06 | 95.9 | CC/C=C\CCCCOC(CCC(=O)OCC(COC(=O)CCCCCCOC(=O)C(CCCC)CCCCCC)COC(=O)CCC(CCCCCC)OC(=O)NCCN(CC)CC)OCCCC/C=C\CC (stereo not shown) [Compound 7-41, 3-((4,4-bis(((Z)-oct-5-en-1-yl)oxy)butanoyl)oxy)-2-(((7-((2-butyloctanoyl)oxy)heptanoyl)oxy)methyl)propyl 4-(((2-(diethylamino)ethyl)carbamoyl)oxy)decanoate] | 4.5 |
| 74 | 0.13 | 97.2 | CC/C=C\CCCCOC(CCC(=O)OCC(COC(=O)CCCCCCOC(=O)C(CCCC)CCCCCC)COC(=O)CCC(CCCCCC)OC(=O)NCCCN(CC)CC)OCCCC/C=C\CC (stereo not shown) [Compound 7-42, 3-((4,4-bis(((Z)-oct-5-en-1-yl)oxy)butanoyl)oxy)-2-(((7-((2-butyloctanoyl)oxy)heptanoyl)oxy)methyl)propyl 4-(((3-(diethylamino)propyl)carbamoyl)oxy)decanoate] | 7.3 |
| 68.8 | 0.08 | 89.2 | CC/C=C\CCCCOC(CCC(=O)OCC(COC(=O)CCCCCCOC(=O)C(CCCC)CCCCCC)COC(=O)CCC(CCCCCC)OC(=O)NCCN1CCCCC1)OCCCC/C=C\CC (stereo not shown) [Compound 7-44, 3-((4,4-bis(((Z)-oct-5-en-1-yl)oxy)butanoyl)oxy)-2-(((7-((2-butyloctanoyl)oxy)heptanoyl)oxy)methyl)propyl 4-(((2-(piperidin-1-yl)ethyl)carbamoyl)oxy)decanoate] | 0.1 |
| 81.8 | 0.13 | 93.4 | CC/C=C\CCCCOC(CCC(=O)OCC(COC(=O)CCCCCCOC(=O)C(CCCC)CCCCCC)COC(=O)CCC(CCCCCC)OC(=O)OCCCN(CC)CC)OCCCC/C=C\CC (stereo not shown) [Compound 7-45, 3-((4,4-bis(((Z)-oct-5-en-1-yl)oxy)butanoyl)oxy)-2-(((7-((2-butyloctanoyl)oxy)heptanoyl)oxy)methyl)propyl 4-(((3-(diethylamino)propoxy)carbonyl)oxy)decanoate] | 3.4 |
| 82.35 | 0.13 | 93.7 | CC/C=C\CCCCOC(CCC(=O)OCC(COC(=O)CCCCCCOC(=O)C(CCCC)CCCCCC)COC(=O)CCC(CCCCCC)OC(=O)OCC1CCCN(CC)C1)OCCCC/C=C\CC (stereo not shown) [Compound 7-46, 3-((4,4-bis(((Z)-oct-5-en-1-yl)oxy)butanoyl)oxy)-2-(((7-((2-butyloctanoyl)oxy)heptanoyl)oxy)methyl)propyl 4-((((1-ethylpiperidin-3-yl)methoxy)carbonyl)oxy)decanoate] | 1.1 |
